# What was measured:
# [1] = tested on: immune cell clusters (CD45+ cells); experiment: CyTOF mass cytometry of blood and spleen with Citrus analysis; assay type: in vivo, mice; conditions: 6-OHDA 150 mg/kg twice IP (SNS ablated); splenocytes 24 h after VTA activation
# Procedure: Two weeks after completion of the behavioral testing, mice were injected intraperitoneally with CNO and anesthetized 24 hours thereafter. Spleens and blood samples were collected. Spleens were dissociated into single-cell suspensions in 2% fetal bovine serum (Biological Industries, IL) and mesh filtered to remove clumps and debris. Blood samples were collected into heparin-coated sterile test tubes. Both the blood and the spleen cell suspensions were lysed with red blood cell lysis buffer (BD Biosciences, NJ, US). Cells ([…]) from each tissue were stained, for 1 hour at room temperature, with a mixture of metal tagged antibodies recognizing CD45, CCR3, CD80, GR1, CD86, CD19, CD4, CD45R, CD152, CD138, CD8, NK1.1, CD27, CD206, CD25, CD14, CD11c, CD49b, CD34, CD69, CD123, TCRβ, CCR7, CD28, CD115, CD133, TLR4, CD117, CD79b, CD62L, CD44, CD45RA, CD1d, IAIE, CD5, and CD11b. All antibodies were conjugated using the MAXPAR reagent (Fluidigm Inc.), with Rhodium and Iridium intercalators used to identify live/dead cells. Cells were washed twice with PBS, fixed in 1.6% formaldehyde (Sigma-Aldrich, St. Louis, MO) for 1 hour, washed again in ultrapure H2O and subjected to CyTOF mass cytometry analysis on a CyTOF I machine, with cell events acquired at approximately 500 events per second. In addition, each sample was spiked with internal metal isotope bead standards, which then was used for sample normalization by CyTOF software (Fluidigm). Acquired data was then uploaded to a Cytobank web server (Cytobank Inc.) for data processing and gating out of dead cells and normalization beads. Data was transformed using an arc sin h (X/5) transformation.
# Differences in cell subset abundance and functional marker expression between VTA activated and control mice, were identified using the Citrus algorithm, a clustering and differential detection algorithm especially suited for high dimensional cytometry data (2). Twenty FCS files of normalized, live cell/no beads samples (Five VTA activated mice spleens, five VTA activated mice blood samples, 5 control mice spleen and five control mice blood) were each randomly sampled for 40,000 single cell events each. Briefly, Citrus performs three steps to identify cell subsets and differences between groups: First, collected single cell events are pooled together and iteratively hierarchically clustered using a subset of the measured channels for clustering (See Table 1 for a list of 23 clustering markers), yielding overlapping clusters with the ultimate cluster being one encompassing all sampled events. Second, the pooled dataset is split back into its constituting samples and the relative abundance of cells in each cluster is computed, as well as the median values of each functional marker (see Table 1 for a list of functional markers). Only cell clusters whose total abundance in one or more of the measured samples was greater than 1% of the total measured sample was retained for downstream analysis, yielding a total of 151 clusters. Third, the Citrus implementation of the SAM algorithm was applied, to identify, separately, differences in cell subset abundances and medians between VTA activated and control mouse samples at a predetermined FDR of 5%. Beyond this, an additional criteria for calling differences was employed, by performing a Mann-Whitney non-parametric test of significance on each cluster found to be different between VTA activated and control and requiring that it meet a p-value <0.05 criteria. Manual inspection of Citrus output was used to identify the closest known gross-cell type, matching the 23 combination clustering marker panel. A similar procedure analysis procedure was performed for 6-OHDA samples versus control. […]
# [2] = IP injected; cited from earlier work
smiles,measurement,setting,value
"NCCc1cc(O)c(O)cc1O [6 OHDA, 6-hydroxydopamine]",differences in immune system (CD45+ cells) between VTA-activated and control mice,[1],no significant differences were detected
same,crossing of the blood brain barrier,[2],does not cross the blood brain barrier

# — patent US12201628B2, “Neuronal modulation” (priority 2013, dated 2025)
